In patent US12415785B2, “Compound modulators of sting” (CTXT PTY LTD, priority 2019, dated 2025):

Tests used:
[1] = biological target: WT human STING isoform (THP-1-Dual KI-hSTING-R232 cells) (Homo sapiens (Human), UniProt Q86WV6, H232R); assay: THP-1-Dual KI-hSTING-R232 reporter cell line assay; assay type: cell-based; conditions: 24 h incubation, QUANTI-Luc luminescence
Summary of the method: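 THP-1 STING Lucia ISG cells (HAQ STING) or THP-1-Dual KI-hSTING-R232 cells (WT STING) treated 24 h at 37 °C with 11-point, 2.5-fold compound dilutions. ISG-driven Lucia luciferase read by luminescence, normalised to untreated wells and 40 μM ML RR-S2 CDA positive control; EC50 derived.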

human STING (WT) = human STING (WT) (Homo sapiens (Human), UniProt Q86WV6, H232R); assay: Differential scanning fluorimetry (DSF), huSTING (WT); assay type: binding; conditions: 2 μM protein, compound 100 μM; Tm with ligand minus Tm of protein alone (1% DMSO); read-out: DSF huSTING (WT) ΔTm (° C.)
Summary of the method: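 Recombinant His-TEV-tagged human STING allelic variants expressed in E. coli and purified by IMAC. Thermal unfolding followed by dye fluorescence (excitation 490 nm, emission 570 nm) from 20° C. to 100° C. in 0.5° C. steps, in triplicate, with and without ligand; Tm taken from the transition inflection point.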

Sequence of WT human STING isoform (THP-1-Dual KI-hSTING-R232 cells) (Q86WV6 whole entry H232R, canonical isoform): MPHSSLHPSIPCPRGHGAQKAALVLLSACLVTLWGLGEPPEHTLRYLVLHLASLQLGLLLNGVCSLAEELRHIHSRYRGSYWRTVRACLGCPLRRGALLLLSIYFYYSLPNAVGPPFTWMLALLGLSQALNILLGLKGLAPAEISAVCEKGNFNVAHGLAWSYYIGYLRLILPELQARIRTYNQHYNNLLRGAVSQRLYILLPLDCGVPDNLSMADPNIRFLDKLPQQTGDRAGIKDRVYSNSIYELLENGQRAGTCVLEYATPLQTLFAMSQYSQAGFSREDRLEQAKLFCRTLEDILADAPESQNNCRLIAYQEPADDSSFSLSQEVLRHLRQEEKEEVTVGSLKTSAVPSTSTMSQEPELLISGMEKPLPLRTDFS
Sequence of human STING (WT) (Q86WV6 other isoform, or with tags, fused parts or gaps, stated change not applied): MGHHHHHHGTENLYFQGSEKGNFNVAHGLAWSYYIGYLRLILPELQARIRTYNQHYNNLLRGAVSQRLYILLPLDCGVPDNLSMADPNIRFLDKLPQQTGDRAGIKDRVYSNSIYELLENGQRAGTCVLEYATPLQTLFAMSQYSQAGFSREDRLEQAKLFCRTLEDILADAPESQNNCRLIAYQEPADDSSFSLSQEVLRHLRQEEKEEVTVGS

SMILES: COc1ccc(-c2nc3c(OC)c(C(N)=O)ccc3n2CCn2c(-c3ccc(OC)cc3C(=O)O)nc3c(OC)c(C(N)=O)ccc32)c(C(=O)O)c1 [Example 41, 6,6′-(Ethane-1,2-diylbis(5-carbamoyl-4-methoxy-1H-benzo[d]imidazole-1,2-diyl))bis(3-methoxybenzoic acid)]
- EC50 [1]: > 40000 nM
- ΔTm at 100 µM (human STING (WT)): 1.09 °C

SMILES: COc1c(C(N)=O)ccc2c1nc(-c1cc(Cl)ccc1-c1nn[nH]n1)n2CCn1c(-c2cc(Cl)ccc2-c2nn[nH]n2)nc2c(OC)c(C(N)=O)ccc21 [Example 42, 1,1′-(Ethane-1,2-diyl)bis(2-(5-chloro-2-(2H-tetrazol-5-yl)phenyl)-4-methoxy-1H-benzo[d]imidazole-5-carboxamide)]
- EC50 [1]: 4390 nM
- ΔTm at 100 µM (human STING (WT)): 2.04 °C

SMILES: COc1c(C(N)=O)ccc2c1nc(-c1c(F)cc(F)cc1-c1nn[nH]n1)n2CCn1c(-c2c(F)cc(F)cc2-c2nn[nH]n2)nc2c(OC)c(C(N)=O)ccc21 [Example 43, 1,1′-(Ethane-1,2-diyl)bis(2-(2,4-difluoro-6-(2H-tetrazol-5-yl)phenyl)-4-methoxy-1H-benzo[d]imidazole-5-carboxamide)]
- EC50 [1]: 440 nM
- ΔTm at 100 µM (human STING (WT)): 9.87 °C

SMILES: COc1c(C(N)=O)ccc2c1nc(-c1c(F)cc(F)cc1-c1n[nH]c(=O)o1)n2CCn1c(-c2c(F)cc(F)cc2-c2n[nH]c(=O)o2)nc2c(OC)c(C(N)=O)ccc21 [Example 44, 1,1′-(Ethane-1,2-diyl)bis(2-(2,4-difluoro-6-(5-oxo-4,5-dihydro-1,3,4-oxadiazol-2-yl)phenyl)-4-methoxy-1H-benzo[d]imidazole-5-carboxamide)]
- EC50 [1]: 380 nM
- ΔTm at 100 µM (human STING (WT)): 0.88 °C

SMILES: COc1c(C(N)=O)ccc2c1nc(-c1c(F)cc(Cl)cc1Br)n2CCn1c(-c2c(F)cc(Cl)cc2Br)nc2c(OC)c(C(N)=O)ccc21 [Example 45, 1,1′-(Ethane-1,2-diyl)bis(2-(2-bromo-4-chloro-6-fluorophenyl)-4-methoxy-1H-benzo[d]imidazole-5-carboxamide)]
- EC50 [1]: 3250 nM
- ΔTm at 100 µM (human STING (WT)): -0.34 °C

SMILES: COc1c(C(N)=O)ccc2c1nc(-c1c(F)cc(Cl)cc1-c1nn[nH]n1)n2CCn1c(-c2c(F)cc(Cl)cc2-c2nn[nH]n2)nc2c(OC)c(C(N)=O)ccc21 [Example 46, 1,1′-(Ethane-1,2-diyl)bis(2-(4-chloro-2-fluoro-6-(2H-tetrazol-5-yl)phenyl)-4-methoxy-1H-benzo[d]imidazole-5-carboxamide)]
- EC50 [1]: 195 nM
- ΔTm at 100 µM (human STING (WT)): 14.4 °C

SMILES: COc1c(C(N)=O)ccc2c1nc(-c1c(F)cccc1-c1nn[nH]n1)n2CCn1c(-c2c(F)cccc2-c2nn[nH]n2)nc2c(OC)c(C(N)=O)ccc21 [Example 48, 1,1′-(Ethane-1,2-diyl)bis(2-(2-fluoro-6-(2H-tetrazol-5-yl)phenyl)-4-methoxy-1H-benzo[d]imidazole-5-carboxamide)]
- EC50 [1]: 269 nM
- ΔTm at 100 µM (human STING (WT)): 11.8 °C

SMILES: COc1c(C(N)=O)ccc2c1nc(-c1c(F)cccc1-c1n[nH]c(=O)o1)n2CCn1c(-c2c(F)cccc2-c2n[nH]c(=O)o2)nc2c(OC)c(C(N)=O)ccc21 [Example 49, 1,1′-(Ethane-1,2-diyl)bis(2-(2-fluoro-6-(5-oxo-4,5-dihydro-1,3,4-oxadiazol-2-yl)phenyl)-4-methoxy-1H-benzo[d]imidazole-5-carboxamide)]
- EC50 [1]: 191 nM
- ΔTm at 100 µM (human STING (WT)): 10.2 °C

SMILES: COc1c(C(N)=O)ccc2c1nc(-c1c(F)cc(Cl)cc1-c1n[nH]c(=O)o1)n2CCn1c(-c2c(F)cc(Cl)cc2-c2n[nH]c(=O)o2)nc2c(OC)c(C(N)=O)ccc21 [Example 50, 1,1′-(Ethane-1,2-diyl)bis(2-(4-chloro-2-fluoro-6-(5-oxo-4,5-dihydro-1,3,4-oxadiazol-2-yl)phenyl)-4-methoxy-1H-benzo[d]imidazole-5-carboxamide)]
- EC50 [1]: 31.2 nM
- ΔTm at 100 µM (human STING (WT)): 12.5 °C
